Results reported in the NIST ThermoML archive (doi:10.1016/j.fluid.2009.04.006).
Values joined by “and” are separate entries in the source; they are usually repeats but may differ in a detail not shown here. Equal entries are not always repeated. ± gives the expanded uncertainty stated by the source.

Conditions: Liquid, Closed cell (Static) method

NCCOCCOCCN [1,2-bis(2-aminoethoxy)ethane]
Conditions | vapor or sublimation pressure [kPa]
292.92 K | 0.00358 ± 0.00027
302.88 K | 0.00757 ± 0.00054
312.87 K | 0.0156 ± 0.0011
322.91 K | 0.0297 ± 0.0019
332.89 K | 0.0545 ± 0.0034
342.89 K | 0.104 ± 0.007
353.02 K | 0.184 ± 0.011

OCCNCc1ccccc1 [2-benzylaminoethanol]
Conditions | vapor or sublimation pressure
292.82 K | 0.000782 ± 0.00011 kPa
312.85 K | 0.0052 ± 0.00038 kPa
332.88 K | 0.0271 ± 0.0018 kPa
332.89 K | 0.027 ± 0.0018 kPa
352.92 K | 0.114 ± 0.007 kPa
362.91 K | 0.239 ± 0.015 kPa and 0.231 ± 0.014 kPa

CN(C)CCN(C)C [N,N,N',N'-tetramethyl-1,2-diaminoethane]
Conditions | vapor or sublimation pressure [kPa]
294.75 K | 1.766 ± 0.11
304.74 K | 3.055 ± 0.18
314.76 K | 5.055 ± 0.3
324.95 K | 8.115 ± 0.49
334.99 K | 12.53 ± 0.75
344.96 K | 19.34 ± 1.2
354.98 K | 28.12 ± 1.7
364.97 K | 40.04 ± 2.4

CN1CCOCC1 [N-methylmorpholine]
Conditions | vapor or sublimation pressure
273.18 K | 6.9 ± 0.41 kPa
283.12 K | 12.94 ± 0.78 kPa and 12.93 ± 0.78 kPa
293.06 K | 23.06 ± 1.4 kPa
303.04 K | 39.34 ± 2.4 kPa
313.05 K | 64.46 ± 3.9 kPa
323.08 K | 101.73 ± 6.1 kPa
333.07 K | 155.32 ± 9.3 kPa
343.08 K | 230.31 ± 14 kPa
353.08 K | 332.76 ± 20 kPa
